Experimental data: ChEMBL document CHEMBL5260839 (J Med Chem, 2019)
Active and inactive are the calls of the source. No cut-off for these calls is given here. Peptide text beside a SMILES is read from it. * marks the point of attachment. Cbz = O=C(OCc1ccccc1)*

How the values were obtained:
[1] = tested on: RS4-11; assay: cells; conditions: Homo sapiens, RS4-11, 96 h
[2] = tested on: RS4-11; assay: Potency index, ratio of MI-1242 IC50 to test compound IC50 for inhibition of cell growth in human RS4-11 cells incubated for 4 days by lactate dehydrogenase based WST-8 assay; assay type: functional; conditions: time 4 day
[3] = tested on: RS4-11; assay: Potency index, ratio of MI-1061 IC50 to test compound IC50 for inhibition of cell growth in human RS4-11 cells incubated for 4 days by lactate dehydrogenase based WST-8 assay; assay type: functional; conditions: time 4 day
[4] = tested on: MOLM-13; assay: cells; conditions: Homo sapiens, MOLM-13, 96 h
[5] = tested on: SIG-M5; assay: cells; conditions: Homo sapiens, SIG-M5, 96 h
[6] = Toxicity in mouse xenografted with human RS4-11 cells assessed as signs of toxicity at 100 mg/kg, po administered once daily for 5 days; assay type: organism-based; conditions: in vivo, 120 h, time 5 day
[7] = tested on: MONO-MAC-6; assay: cells; conditions: Homo sapiens, MONO-MAC-6, 96 h
[8] = tested on: MV4-11; assay: Inhibition of cell growth in human MV4-11 cells incubated for 4 days in the presence of lenalidomide by Lactate dehydrogenase based WST-8 assay; assay type: functional; conditions: time 4.0 day
[9] = tested on: RS4-11; assay: Induction of apoptosis in human RS4-11 cells incubated for 24 hrs by Annexin-V/PI staining based flow cytometric analysis; assay type: functional, cell-based
[10] = tested on: RS4-11; assay: Inhibition of cell growth in human RS4-11 cells incubated for 4 days in the presence of lenalidomide by Lactate dehydrogenase based WST-8 assay; assay type: functional; conditions: time 4.0 day
[11] = tested on: RS4-11; assay: Antitumor activity against human RS4-11 cells xenografted in mouse assessed as reduction in tumor growth at 100 mg/kg, po administered daily for 5 days starting from day 26; assay type: functional, organism-based; conditions: time 5.0 day
[12] = Toxicity in mouse xenografted with human RS4-11 cells assessed as weight loss at 100 mg/kg, po administered once daily for 5 days; assay type: organism-based; conditions: in vivo, 120 h, time 5 day
[13] = tested on: KG-1; assay: cells; conditions: Homo sapiens, KG-1, 96 h
[14] = target: T1, E3 ubiquitin-protein ligase Mdm2 (Homo sapiens, UniProt Q00987); assay: Inhibition of MDM2 in human RS4-11 cells harbouring wildtype p53 assessed as fold change in MDM2 level at 3 uM incubate for 4 hrs by Western blot analysis (reference value: […]); assay type: cell-based
Target sequence in this assay (Q00987 whole entry, looked up): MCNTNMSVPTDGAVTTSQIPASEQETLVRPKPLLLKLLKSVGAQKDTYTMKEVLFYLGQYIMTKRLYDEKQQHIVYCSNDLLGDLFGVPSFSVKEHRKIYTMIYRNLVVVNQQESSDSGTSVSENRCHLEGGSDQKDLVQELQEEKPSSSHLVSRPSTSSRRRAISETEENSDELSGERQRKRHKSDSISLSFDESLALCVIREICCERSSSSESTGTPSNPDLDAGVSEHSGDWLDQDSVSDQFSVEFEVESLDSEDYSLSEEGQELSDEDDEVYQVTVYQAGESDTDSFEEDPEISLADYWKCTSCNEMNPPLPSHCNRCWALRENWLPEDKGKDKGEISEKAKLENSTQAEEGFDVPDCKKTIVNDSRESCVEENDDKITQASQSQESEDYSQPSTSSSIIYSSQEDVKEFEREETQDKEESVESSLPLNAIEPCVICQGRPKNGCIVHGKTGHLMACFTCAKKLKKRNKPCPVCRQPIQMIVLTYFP

[15] = target: T1, E3 ubiquitin-protein ligase Mdm2; assay: Inhibition of MDM2 in human RS4-11 cells harbouring wildtype p53 assessed as fold change in p53 accumulation at 3 uM incubated for 4 hrs by Western blot analysis (reference value: 1); assay type: cell-based
Target sequence in this assay (Q00987 whole entry, looked up): as above

[16] = target: T1, E3 ubiquitin-protein ligase Mdm2; assay: Inhibition of MDM2 in human RS4-11 cells harbouring wildtype p53 assessed as fold change in MDM2 level at 1 uM incubate for 4 hrs by Western blot analysis (reference value: […]); assay type: cell-based
Target sequence in this assay (Q00987 whole entry, looked up): as above

[17] = target: T1, E3 ubiquitin-protein ligase Mdm2; assay: Inhibition of MDM2 in human RS4-11 cells harbouring wildtype p53 assessed as fold change in p53 accumulation at 1 uM incubated for 4 hrs by Western blot analysis (reference value: 1); assay type: cell-based
Target sequence in this assay (Q00987 whole entry, looked up): as above

[18] = target: T1, E3 ubiquitin-protein ligase Mdm2; assay: Inhibition of MDM2 in human RS4-11 cells harbouring wildtype p53 assessed as fold change in p53 accumulation at 10 uM incubated for 4 hrs by Western blot analysis (reference value: […]); assay type: cell-based
Target sequence in this assay (Q00987 whole entry, looked up): as above

[19] = target: T1, E3 ubiquitin-protein ligase Mdm2; assay: Inhibition of MDM2 in human RS4-11 cells harbouring wildtype p53 assessed as fold change in MDM2 level at 10 uM incubate for 4 hrs by Western blot analysis (reference value: […]); assay type: cell-based
Target sequence in this assay (Q00987 whole entry, looked up): as above

[20] = target: T1, E3 ubiquitin-protein ligase Mdm2; assay: Binding affinity to recombinant human MDM2 (1 to 118 residues) assessed as inhibition constant using FAM-tagged p-53 based peptide as substrate by fluorescence polarization based assay
Target sequence in this assay (Q00987 whole entry): as the sequence (Q00987 whole entry, looked up) above

Row | IC50 [1] | SMILES | other results
1 | 0.005 µM | O=C1CCC(N2C(=O)c3cccc(NCCOCCOCCOCCNC(=O)c4ccc(NC(=O)[C@@H]5NC6(CCCCC6)[C@@]6(C(=O)Nc7cc(Cl)ccc76)[C@H]5c5cccc(Cl)c5F)cc4)c3C2=O)C(=O)N1 (some centres not stated) | –
2 | 0.1 µM | O=C1CCC(N2C(=O)c3cccc(NCCCCCCCNC(=O)c4ccc(NC(=O)[C@@H]5NC6(CCCCC6)[C@@]6(C(=O)Nc7cc(Cl)ccc76)[C@H]5c5cccc(Cl)c5F)cc4)c3C2=O)C(=O)N1 (some centres not stated) | –
3 | 0.01 µM | O=C1CCC(N2C(=O)c3cccc(NCCCCNC(=O)c4ccc(NC(=O)[C@@H]5NC6(CCCCC6)[C@@]6(C(=O)Nc7cc(Cl)ccc76)[C@H]5c5cccc(Cl)c5F)cc4)c3C2=O)C(=O)N1 (some centres not stated) | Ratio IC50 [2]: 10; Ratio IC50 [3]: 10
4 | 0.015 µM | O=C1CCC(N2C(=O)c3cccc(NCCNC(=O)c4ccc(NC(=O)[C@@H]5NC6(CCCCC6)[C@@]6(C(=O)Nc7cc(Cl)ccc76)[C@H]5c5cccc(Cl)c5F)cc4)c3C2=O)C(=O)N1 (some centres not stated) | –
5 | 0.009 µM | O=C1CCC(N2C(=O)c3cccc(NCCCNC(=O)c4ccc(NC(=O)[C@@H]5NC6(CCCCC6)[C@@]6(C(=O)Nc7cc(Cl)ccc76)C5c5cccc(Cl)c5F)cc4)c3C2=O)C(=O)N1 (single isomer, unassigned) | –
6 | 0.008 µM | O=C1CCC(N2C(=O)c3cccc(NCCOCCNC(=O)c4ccc(NC(=O)[C@@H]5NC6(CCCCC6)[C@@]6(C(=O)Nc7cc(Cl)ccc76)[C@H]5c5cccc(Cl)c5F)cc4)c3C2=O)C(=O)N1 (some centres not stated) | –
7 | 0.007 µM | O=C1CCC(N2C(=O)c3cccc(NCCOCCOCCNC(=O)c4ccc(NC(=O)[C@@H]5NC6(CCCCC6)[C@@]6(C(=O)Nc7cc(Cl)ccc76)[C@H]5c5cccc(Cl)c5F)cc4)c3C2=O)C(=O)N1 (some centres not stated) | Ratio IC50 [2]: 10; Ratio IC50 [3]: 10
8 | 0.022 µM | O=C1CCC(N2C(=O)c3cccc(NCCCCCCNC(=O)c4ccc(NC(=O)[C@@H]5NC6(CCCCC6)[C@@]6(C(=O)Nc7cc(Cl)ccc76)[C@H]5c5cccc(Cl)c5F)cc4)c3C2=O)C(=O)N1 (some centres not stated) | –
9 | 0.012 µM | O=C1CCC(N2C(=O)c3cccc(NCCCCCNC(=O)c4ccc(NC(=O)[C@@H]5NC6(CCCCC6)[C@@]6(C(=O)Nc7cc(Cl)ccc76)[C@H]5c5cccc(Cl)c5F)cc4)c3C2=O)C(=O)N1 (some centres not stated) | –

The next lines start with the compound.

Row | SMILES | IC50 [1] | other results
10 | Cc1ncsc1-c1ccc([C@H](C)NC(=O)[C@@H]2C[C@@H](O)CN2C(=O)[C@@H](NC(=O)CCCCNC(=O)c2ccc(NC(=O)[C@@H]3NC4(CCCCC4)[C@@]4(C(=O)Nc5cc(Cl)ccc54)[C@H]3c3cccc(Cl)c3F)cc2)C(C)(C)C)cc1 | 1.2 µM | –
11 | O=C1CCC(N2Cc3ccc(CC#CCCCNC(=O)c4ccc(NC(=O)[C@@H]5NC6(CCCCC6)[C@@]6(C(=O)Nc7cc(Cl)ccc76)[C@H]5c5cccc(Cl)c5F)cc4)cc3C2=O)C(=O)N1 (some centres not stated) | 0.005 µM | –
12 | O=C1CCC(N2Cc3c(C#CCCCNC(=O)c4ccc(NC(=O)[C@H]5NC6(CCCCC6)[C@]6(C(=O)Nc7cc(Cl)ccc76)[C@@H]5c5cccc(Cl)c5F)cc4)cccc3C2=O)C(=O)N1 (some centres not stated) | > 10 µM | –
13 | O=C(O)c1ccc(NC(=O)[C@@H]2NC3(CCCCC3)[C@@]3(C(=O)Nc4cc(Cl)ccc43)[C@H]2c2cccc(Cl)c2F)cc1 | – | IC50 [4]: 0.0768 µM; IC50 [5]: 0.106 µM; Activity [6]: Non-Toxic; IC50 [7]: > 10 µM; inhibition [8]: Active; Activity [9]: Dose-Dependent Effect; inhibition [10]: Active; Activity [11]: Active; Activity [12]: Non-Toxic; IC50 [13]: > 10 µM
14 | Cc1ncsc1-c1ccc([C@H](C)NC(=O)[C@@H]2C[C@@H](O)CN2C(=O)[C@@H](NC(=O)CCOCCOCCNC(=O)c2ccc(NC(=O)[C@@H]3NC4(CCCCC4)[C@@]4(C(=O)Nc5cc(Cl)ccc54)[C@H]3c3cccc(Cl)c3F)cc2)C(C)(C)C)cc1 | 0.5 µM | –
15 | O=C1CCC(N2C(=O)c3cccc(NC(=O)c4ccc(NC(=O)[C@@H]5NC6(CCCCC6)[C@@]6(C(=O)Nc7cc(Cl)ccc76)[C@H]5c5cccc(Cl)c5F)cc4)c3C2=O)C(=O)N1 (some centres not stated) | 0.0684 µM | –
16 | Cc1ncsc1-c1ccc([C@H](C)NC(=O)[C@@H]2C[C@@H](O)CN2C(=O)[C@@H](NC(=O)CCCOCCOCCOCCNC(=O)c2ccc(NC(=O)[C@@H]3NC4(CCCCC4)[C@@]4(C(=O)Nc5cc(Cl)ccc54)[C@H]3c3cccc(Cl)c3F)cc2)C(C)(C)C)cc1 | 0.34 µM | –
17 | O=C1CCC(N2Cc3c(C#CCCNC(=O)c4ccc(NC(=O)[C@@H]5NC6(CCCCC6)[C@@]6(C(=O)Nc7cc(Cl)ccc76)[C@H]5c5cccc(Cl)c5F)cc4)cccc3C2=O)C(=O)N1 (some centres not stated) | 0.0039 µM | –
18 | O=C1CCC(N2Cc3cccc(NCCCCNC(=O)c4ccc(NC(=O)[C@@H]5NC6(CCCCC6)[C@@]6(C(=O)Nc7cc(Cl)ccc76)[C@H]5c5cccc(Cl)c5F)cc4)c3C2=O)C(=O)N1 (some centres not stated) | 0.005 µM | –
19 | NS(=O)(=O)OC[C@@H]1C[C@@H](n2ccc3c(N[C@H]4CCc5ccccc54)ncnc32)C[C@@H]1O | – | fold change (FC) [14]: 2.4; fold change (FC) [15]: 5.1
20 | CC(C)C[C@H](NC(=O)[C@H](CCc1ccccc1)NC(=O)CN1CCOCC1)C(=O)N[C@@H](Cc1ccccc1)C(=O)N[C@@H](CC(C)C)C(=O)[C@@]1(C)CO1 | – | fold change (FC) [16]: 3.6; fold change (FC) [17]: 8.5
21 | CN1C(=O)CCC(N2Cc3c(C#CCCCNC(=O)c4ccc(NC(=O)[C@@H]5NC6(CCCCC6)[C@@]6(C(=O)Nc7cc(Cl)ccc76)[C@H]5c5cccc(Cl)c5F)cc4)cccc3C2=O)C1=O (some centres not stated) | 1.2 µM | –
22 | CC(C)C[C@@H](C=O)NC(=O)[C@H](CC(C)C)NC(=O)[C@H](CC(C)C)NC(=O)OCc1ccccc1 (Cbz-Leu-Leu-Leu-aldehyde) | – | fold change (FC) [18]: 6.9; fold change (FC) [19]: 2.9
23 | O=C1CCC(N2Cc3cc(CC#CCCCNC(=O)c4ccc(NC(=O)[C@@H]5NC6(CCCCC6)[C@@]6(C(=O)Nc7cc(Cl)ccc76)[C@H]5c5cccc(Cl)c5F)cc4)ccc3C2=O)C(=O)N1 (some centres not stated) | 0.005 µM | –
24 | CNC(=O)c1ccc(NC(=O)[C@@H]2NC3(CCCCC3)[C@@]3(C(=O)Nc4cc(Cl)ccc43)[C@H]2c2cccc(Cl)c2F)cc1 | 0.089 µM | Ki [20]: 0.0027 µM
25 | O=C1CCC(N2C(=O)c3cccc(CCCCCNC(=O)c4ccc(NC(=O)[C@@H]5NC6(CCCCC6)[C@@]6(C(=O)Nc7cc(Cl)ccc76)[C@H]5c5cccc(Cl)c5F)cc4)c3C2=O)C(=O)N1 (some centres not stated) | 0.029 µM | –
